In US20230148214A1, “INDAZOLES AND AZAINDAZOLES AS LRRK2 INHIBITORS” (ESCAPE Bio, Inc., priority 2020, published 2023):
pIC50: −log10 of the molar value.

Experiments:
LRRK2 WT = target: T1, LRRK2 WT (Homo sapiens, UniProt Q5S007); test: LRRK2 Kinase Activity Assay (LanthaScreen TR-FRET), wild type; format: biochemical; settings: recombinant wild type LRRK2, 25 μM ATP, 400 nM LRRKtide, 60 min
T1 construct: purchased Life Technologies PR8604B
Method in brief: (§1)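 IC50 fitted to the compound-dependent loss of TR-FRET signal. Each kinase form, wild type or G2019S, phosphorylated the fluorescein-tagged ERM-derived LRRKtide in the presence of ATP and compound dilutions over 60 min at room temperature; quench contained 10 mM EDTA and 2 nM anti-pERM antibody (final).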

LRRK2 G2019S = target: T2, LRRK2 G2019S (Homo sapiens, UniProt Q5S007, G2019S); test: LRRK2 Kinase Activity Assay (LanthaScreen TR-FRET), G2019S; format: biochemical; settings: recombinant G2019S-LRRK2, 25 μM ATP, 400 nM LRRKtide, 60 min; class symbols
T2 construct: purchased Life Technologies PV4881
T2 sequence (Q5S007 whole entry G2019S): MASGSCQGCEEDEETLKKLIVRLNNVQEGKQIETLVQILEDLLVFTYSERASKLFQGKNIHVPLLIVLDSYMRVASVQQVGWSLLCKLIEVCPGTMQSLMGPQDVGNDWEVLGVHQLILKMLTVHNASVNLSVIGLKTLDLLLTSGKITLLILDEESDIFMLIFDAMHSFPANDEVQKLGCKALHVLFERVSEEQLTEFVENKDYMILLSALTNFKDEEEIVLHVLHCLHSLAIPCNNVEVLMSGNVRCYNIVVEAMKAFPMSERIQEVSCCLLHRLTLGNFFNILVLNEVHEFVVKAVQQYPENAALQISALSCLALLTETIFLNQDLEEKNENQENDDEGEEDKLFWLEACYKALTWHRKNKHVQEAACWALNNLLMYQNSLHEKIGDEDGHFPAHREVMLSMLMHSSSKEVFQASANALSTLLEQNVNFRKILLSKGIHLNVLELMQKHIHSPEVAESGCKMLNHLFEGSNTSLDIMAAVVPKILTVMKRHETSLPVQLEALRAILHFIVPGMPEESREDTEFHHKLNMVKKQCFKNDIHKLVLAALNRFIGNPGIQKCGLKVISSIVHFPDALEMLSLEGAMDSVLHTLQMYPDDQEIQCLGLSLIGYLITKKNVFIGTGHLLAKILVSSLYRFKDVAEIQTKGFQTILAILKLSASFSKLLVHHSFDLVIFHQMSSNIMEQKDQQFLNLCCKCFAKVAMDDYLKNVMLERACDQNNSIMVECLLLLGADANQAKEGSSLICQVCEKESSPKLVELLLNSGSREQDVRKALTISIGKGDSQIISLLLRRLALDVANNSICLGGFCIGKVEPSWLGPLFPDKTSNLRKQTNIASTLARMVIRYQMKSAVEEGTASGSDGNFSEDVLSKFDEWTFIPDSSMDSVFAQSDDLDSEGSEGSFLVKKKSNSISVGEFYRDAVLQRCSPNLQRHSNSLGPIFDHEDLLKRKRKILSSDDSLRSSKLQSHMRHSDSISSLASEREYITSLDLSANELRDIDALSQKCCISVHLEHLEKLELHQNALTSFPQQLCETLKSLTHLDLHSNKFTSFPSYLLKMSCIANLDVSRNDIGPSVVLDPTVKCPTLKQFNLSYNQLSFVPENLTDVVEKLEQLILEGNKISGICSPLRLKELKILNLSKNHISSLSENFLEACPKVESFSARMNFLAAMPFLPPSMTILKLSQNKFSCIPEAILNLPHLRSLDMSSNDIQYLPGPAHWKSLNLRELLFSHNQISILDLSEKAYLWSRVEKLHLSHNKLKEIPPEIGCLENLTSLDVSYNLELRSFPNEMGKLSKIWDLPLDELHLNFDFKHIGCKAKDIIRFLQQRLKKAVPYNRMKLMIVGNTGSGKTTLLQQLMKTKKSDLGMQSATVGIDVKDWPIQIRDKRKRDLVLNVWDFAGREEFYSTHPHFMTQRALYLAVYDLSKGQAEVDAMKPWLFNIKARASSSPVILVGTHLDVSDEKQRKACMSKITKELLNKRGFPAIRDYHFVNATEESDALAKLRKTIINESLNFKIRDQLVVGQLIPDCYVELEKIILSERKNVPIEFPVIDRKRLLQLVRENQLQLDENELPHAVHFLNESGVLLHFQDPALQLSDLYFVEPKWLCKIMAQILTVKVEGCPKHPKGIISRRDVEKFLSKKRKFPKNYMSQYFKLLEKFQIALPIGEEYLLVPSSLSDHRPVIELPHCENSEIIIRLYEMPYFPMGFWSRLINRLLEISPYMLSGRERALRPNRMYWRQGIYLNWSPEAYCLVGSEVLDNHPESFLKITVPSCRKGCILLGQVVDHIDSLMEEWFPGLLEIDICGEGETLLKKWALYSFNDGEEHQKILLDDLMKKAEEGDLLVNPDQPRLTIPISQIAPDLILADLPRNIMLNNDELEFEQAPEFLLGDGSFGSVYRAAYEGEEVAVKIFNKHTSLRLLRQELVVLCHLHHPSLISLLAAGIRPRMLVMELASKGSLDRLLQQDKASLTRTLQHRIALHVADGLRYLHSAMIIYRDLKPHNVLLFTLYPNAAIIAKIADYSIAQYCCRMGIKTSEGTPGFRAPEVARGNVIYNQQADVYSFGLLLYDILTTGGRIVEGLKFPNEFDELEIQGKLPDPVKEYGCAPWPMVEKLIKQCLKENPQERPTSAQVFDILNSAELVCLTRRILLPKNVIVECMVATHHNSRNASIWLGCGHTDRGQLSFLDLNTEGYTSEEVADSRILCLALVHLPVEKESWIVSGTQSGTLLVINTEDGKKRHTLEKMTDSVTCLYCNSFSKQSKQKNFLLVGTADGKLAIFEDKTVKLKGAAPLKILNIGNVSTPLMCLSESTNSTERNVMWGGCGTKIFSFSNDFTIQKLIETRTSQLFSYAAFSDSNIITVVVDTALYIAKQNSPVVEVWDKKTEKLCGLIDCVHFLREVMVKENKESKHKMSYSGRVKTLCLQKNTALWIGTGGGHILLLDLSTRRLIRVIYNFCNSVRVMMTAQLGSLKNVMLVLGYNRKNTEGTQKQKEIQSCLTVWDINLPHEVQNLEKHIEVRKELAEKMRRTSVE
Method in brief: as §1

T1 sequence (Q5S007 whole entry): as the sequence (Q5S007 whole entry G2019S) above, with S2019G counted along it

Row | Structure (SMILES) | pIC50 (LRRK2 WT; class symbols) | pIC50 (LRRK2 G2019S) | pIC50 (LRRK2 WT; numeric bound)
1 | N#Cc1cc2c(cc1F)[C@@H](Oc1ccc3[nH]nc(-c4cnco4)c3c1)CC2 (single isomer, unassigned) [Example 23, enantiomer 1, 6-Fluoro-1-((3-(oxazol-5-yl)-1H-indazol-5-yl)oxy)-2,3-dihydro-1H-indene-5-carbonitrile] | > 7.00 | > 7.00 | 
2 | N#Cc1ccc2c(c1F)CC[C@@H]2Oc1ccc2[nH]nc(-c3cnco3)c2c1 (single isomer, unassigned) [Example 24, enantiomer 1, 4-Fluoro-1-((3-(oxazol-5-yl)-1H-indazol-5-yl)oxy)-2,3-dihydro-1H-indene-5-carbonitrile] | > 7.00 | > 7.00 | 
3 | N#Cc1cc2c(cc1F)[C@@H](Nc1ccc3[nH]nc(-c4cnco4)c3c1)CC2 (single isomer, unassigned) [Example 25, enantiomer 1, 6-Fluoro-1-((3-(oxazol-5-yl)-1H-indazol-5-yl)amino)-2,3-dihydro-1H-indene-5-carbonitrile] | > 7.00 | > 7.00 | 
4 | N#Cc1ccc2c(c1F)CC[C@@H]2Nc1ccc2[nH]nc(-c3cnco3)c2c1 (single isomer, unassigned) [Example 26, enantiomer 1, 4-Fluoro-1-((3-(oxazol-5-yl)-1H-indazol-5-yl)amino)-2,3-dihydro-1H-indene-5-carbonitrile] | > 7.00 | > 7.00 | 
5 | Cc1c(C#N)ccc2c1CC[C@@H]2Nc1ccc2[nH]nc(-c3cnco3)c2c1 (single isomer, unassigned) [Example 27, enantiomer 1, 4-methyl-1-((3-(oxazol-5-yl)-1H-indazol-5-yl)amino)-2,3-dihydro-1H-indene-5-carbonitrile] | > 7.00 | > 7.00 | 
6 | Cc1cc2c(cc1C#N)CC[C@@H]2Nc1ccc2[nH]nc(-c3cnco3)c2c1 (single isomer, unassigned) [Example 28, enantiomer 1, 6-Methyl-1-((3-(oxazol-5-yl)-1H-indazol-5-yl)amino)-2,3-dihydro-1H-indene-5-carbonitrile] | 6.00 to 7.00 | > 7.00 | 
7 | Cc1cc2c(cc1C#N)CC[C@H]2Oc1ccc2[nH]nc(-c3cnco3)c2c1 (single isomer, unassigned) [Example 29, enantiomer 1, 6-Methyl-1-((3-(oxazol-5-yl)-1H-indazol-5-yl)oxy)-2,3-dihydro-1H-indene-5-carbonitrile] | > 7.00 | > 7.00 | 
8 | N#Cc1ccc2c(c1)CC[C@H]2Nc1ccc2[nH]nc(-c3cnco3)c2n1 (single isomer, unassigned) [Example 30, enantiomer 1, 1-((3-(Oxazol-5-yl)-1H-pyrazolo[4,3-b]pyridin-5-yl)amino)-2,3-dihydro-1H-indene-5-carbonitrile] | > 7.00 | > 7.00 | 
9 | N#Cc1ccc2c(c1)CC[C@H]2Nc1ccc2[nH]nc(-c3cnco3)c2n1 (single isomer, unassigned) [Example 30, enantiomer 2, 1-((3-(Oxazol-5-yl)-1H-pyrazolo[4,3-b]pyridin-5-yl)amino)-2,3-dihydro-1H-indene-5-carbonitrile] | 6.00 to 7.00 | > 7.00 | 
10 | N#Cc1ccc2c(c1)CC[C@H]2Oc1ccc2[nH]nc(-c3cnco3)c2n1 (single isomer, unassigned) [Example 31, enantiomer 1, 1-((3-(Oxazol-5-yl)-1H-pyrazolo[4,3-b]pyridin-5-yl)oxy)-2,3-dihydro-1H-indene-5-carbonitrile] | > 7.00 | > 7.00 | 
11 | N#Cc1ccc2c(c1)CC[C@H]2Oc1ccc2[nH]nc(-c3cnco3)c2n1 (single isomer, unassigned) [Example 31, enantiomer 2, 1-((3-(Oxazol-5-yl)-1H-pyrazolo[4,3-b]pyridin-5-yl)oxy)-2,3-dihydro-1H-indene-5-carbonitrile] | 6.00 to 7.00 | > 7.00 | 
12 | N#Cc1ccc2c(c1)CCC[C@H]2Oc1cc2c(-c3cnco3)n[nH]c2cn1 (single isomer, unassigned) [Example 32, enantiomer 1, 5-((3-(Oxazol-5-yl)-1H-pyrazolo[3,4-c]pyridin-5-yl)oxy)-5,6,7,8-tetrahydronaphthalene-2-carbonitrile] | 5.00 to 6.00 | 6.00 to 7.00 | 
13 | N#Cc1ccc2c(c1)CCC[C@H]2Oc1cc2c(-c3cnco3)n[nH]c2cn1 (single isomer, unassigned) [Example 32, enantiomer 2, 5-((3-(Oxazol-5-yl)-1H-pyrazolo[3,4-c]pyridin-5-yl)oxy)-5,6,7,8-tetrahydronaphthalene-2-carbonitrile] | > 7.00 | > 7.00 | 
14 | N#Cc1ccc2c(c1)CCC[C@@H]2Nc1cc2c(-c3cnco3)n[nH]c2cn1 (single isomer, unassigned) [Example 33, enantiomer 1, 5-((3-(Oxazol-5-yl)-1H-pyrazolo[3,4-c]pyridin-5-yl)amino)-5,6,7,8-tetrahydronaphthalene-2-carbonitrile] | > 7.00 | > 7.00 | 
15 | N#Cc1ccc2c(c1)CCC[C@@H]2Nc1cc2c(-c3cnco3)n[nH]c2cn1 (single isomer, unassigned) [Example 33, enantiomer 2, 5-((3-(Oxazol-5-yl)-1H-pyrazolo[3,4-c]pyridin-5-yl)amino)-5,6,7,8-tetrahydronaphthalene-2-carbonitrile] | 6.00 to 7.00 | 6.00 to 7.00 | 
16 | N#Cc1nc2c(o1)CCC[C@@H]2Nc1ccc2[nH]nc(-c3cnco3)c2c1 (single isomer, unassigned) [Example 35, enantiomer 1, 4-((3-(Oxazol-5-yl)-1H-indazol-5-yl)amino)-4,5,6,7-tetrahydrobenzo[d]oxazole-2-carbonitrile] | > 7.00 | > 7.00 | 
17 | N#Cc1nc2c(o1)CCC[C@@H]2Nc1ccc2[nH]nc(-c3cnco3)c2c1 (single isomer, unassigned) [Example 35, enantiomer 2, 4-((3-(Oxazol-5-yl)-1H-indazol-5-yl)amino)-4,5,6,7-tetrahydrobenzo[d]oxazole-2-carbonitrile] | 6.00 to 7.00 | 6.00 to 7.00 | 
18 | N#Cc1nc2c(o1)CCC2Nc1ccc2[nH]nc(-c3cnco3)c2c1 (single isomer, unassigned) [Example 36, enantiomer 1, 4-((3-(Oxazol-5-yl)-1H-indazol-5-yl)amino)-5,6-dihydro-4H-cyclopenta[d]oxazole-2-carbonitrile] | 5.00 to 6.00 | 6.00 to 7.00 | 
19 | N#Cc1nc2c(o1)CCC2Nc1ccc2[nH]nc(-c3cnco3)c2c1 (single isomer, unassigned) [Example 36, enantiomer 2, 4-((3-(Oxazol-5-yl)-1H-indazol-5-yl)amino)-5,6-dihydro-4H-cyclopenta[d]oxazole-2-carbonitrile] | > 7.00 | > 7.00 | 
20 | N#Cc1cccc2c1[C@@H](Oc1ccc3[nH]nc(-c4cnco4)c3c1)CC2 (single isomer, unassigned) [Example 37, enantiomer 1, 3-((3-(Oxazol-5-yl)-1H-indazol-5-yl)oxy)-2,3-dihydro-1H-indene-4-carbonitrile] | > 7.00 | > 7.00 | 
21 | N#Cc1ccc2c(c1)CCC[C@@H]2Oc1ccc2[nH]nc(-c3ccnc(N4CCOCC4)c3)c2c1 (single isomer, unassigned) [Example 39, enantiomer 1, 5-((3-(2-Morpholinopyridin-4-yl)-1H-indazol-5-yl)oxy)-5,6,7,8-tetrahydronaphthalene-2-carbonitrile] | > 7.00 | > 7.00 | 
22 | COc1cc(-c2n[nH]c3ccc(N[C@H]4CCc5cc(C#N)ccc54)cc23)ccn1 (single isomer, unassigned) [Example 40, enantiomer 1, 1-((3-(2-Methoxypyridin-4-yl)-1H-indazol-5-yl)amino)-2,3-dihydro-1H-indene-5-carbonitrile] | 6.00 to 7.00 | > 7.00 | 
23 | N#Cc1cc2c(nn1)[C@@H](Oc1ccc3[nH]nc(-c4cnco4)c3c1)CC2 (single isomer, unassigned) [Example 41, enantiomer 1, 7-((3-(Oxazol-5-yl)-1H-indazol-5-yl)oxy)-6,7-dihydro-5H-cyclopenta[c]pyridazine-3-carbonitrile] | > 7.00 | > 7.00 | 
24 | N#Cc1ccc2c(c1)CC(F)(F)[C@@H]2Nc1ccc2[nH]nc(-c3cnco3)c2c1 (single isomer, unassigned) [Example 42, enantiomer 1, 2,2-Difluoro-1-((3-(oxazol-5-yl)-1H-indazol-5-yl)amino)-2,3-dihydro-1H-indene-5-carbonitrile] | > 7.00 | > 7.00 | 
25 | Cc1n[nH]c2ccc(N[C@H]3CCCc4cc(C#N)ccc43)cc12 (single isomer, unassigned) [Example 43, enantiomer 1, 5-((3-Methyl-1H-indazol-5-yl)amino)-5,6,7,8-tetrahydronaphthalene-2-carbonitrile] | 6.00 to 7.00 | > 7.00 | 
26 | Cc1n[nH]c2ccc(N[C@H]3CCCc4cc(C#N)ccc43)cc12 (single isomer, unassigned) [Example 43, enantiomer 2, 5-((3-Methyl-1H-indazol-5-yl)amino)-5,6,7,8-tetrahydronaphthalene-2-carbonitrile] | 5.00 to 6.00 | 6.00 to 7.00 | 
27 | N#Cc1ccc2c(c1)CCC[C@@H]2Nc1ccc2[nH]nc(-c3cncs3)c2c1 (single isomer, unassigned) [Example 44, 5-((3-(Thiazol-5-yl)-1H-indazol-5-yl)amino)-5,6,7,8-tetrahydronaphthalene-2-carbonitrile] | > 7.00 | > 7.00 | 
28 | N#Cc1ccc2c(c1)CCC[C@@H]2Nc1ccc2[nH]nc(C3CCCCC3)c2c1 (single isomer, unassigned) [Example 45, 5-((3-Cyclohexyl-1H-indazol-5-yl)amino)-5,6,7,8-tetrahydronaphthalene-2-carbonitrile] |  | 5.00 to 6.00 | < 5.00
